According to patent US7626021B2, “Fused ring heterocycle kinase modulators” (SGX Pharmaceuticals, Inc., priority 2004, dated 2009):

Target: T1, MET kinase (Homo sapiens, UniProt P08581)
T1 construct: Sf9 insect cell culture expressing the kinase domain of human Met; 6x Histidine tag (TEV-cleavable) (cleaved yes); made in house; host or cells: Sf9 insect cells
Assay: MET luminescence-based enzyme assay (Kinase-Glo)
Format: biochemical
Source text: In addition to the c-Abl PK/LDH coupled assay (above), homogeneous luminescence-based inhibitor screening assays were developed for c-Abl, MET, AurA, and PDK1 kinases (among others). Each of these assays made use of an ATP depletion assay (Kinase-Glo™, Promega Corporation, Madison, Wis.) to quantitate kinase activity. The Kinase-Glo™ format uses a thermostable luciferase to generate luminescent signal from ATP remaining in solution following the kinase reaction. The luminescent signal is inversely correlated with the amount of kinase activity.
MET Luminescence-based Enzyme Assay
Materials: Poly Glu-Tyr (4:1) substrate (Sigma Cat# P-0275), ATP (Sigma Cat#A-3377, FW=551), HEPES buffer, pH 7.5, Bovine serum albumin (BSA) (Roche 92423420), MgCl2, Staurosporine (Streptomyces sp. Sigma Cat#85660-1MG), white Costar 384-well flat-bottom plate (VWR Cat#29444-088). […]
Standard Assay Setup for 384-well format (20 μl kinase reaction, 40 μl detection reaction): 10 mM MgCl2; 0.3 mg/ml poly Glu-Tyr; 0.1% BSA; 1 μl test compound (in DMSO); 0.4 μg/ml MET kinase; 10 μM ATP; 100 mM HEPES buffer. […] Kinase reactions were incubated at 21° C. for 60 min, then 20 μl of Kinase-Glo™ reagent were added to each well to quench the kinase reaction and initiate the luminescence reaction. After a 20 min incubation at 21° C., the luminescence was detected in a plate-reading luminometer.

T1 sequence (P08581 1078-1345 limits assumed): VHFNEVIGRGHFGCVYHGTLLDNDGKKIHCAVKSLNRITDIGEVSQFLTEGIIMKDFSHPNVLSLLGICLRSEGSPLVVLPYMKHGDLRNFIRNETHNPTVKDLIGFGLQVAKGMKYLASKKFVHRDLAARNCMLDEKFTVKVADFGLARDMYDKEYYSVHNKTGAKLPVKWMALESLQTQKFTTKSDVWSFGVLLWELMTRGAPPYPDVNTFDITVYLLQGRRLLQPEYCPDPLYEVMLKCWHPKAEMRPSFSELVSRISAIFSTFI

- IC50: 1 to 10 µM
SMILES: CCN1CCN(C(=O)c2cccc(-c3cnc4[nH]nc(-c5cc(F)ccc5OC)c4c3)c2)CC1
